The text below walks through data of ChEMBL document CHEMBL1138166, “Synthesis and antimycobacterial activity of some alkyl [5-(nitroaryl)-1,3,4-thiadiazol-2-ylthio]propionates” (2006).

Converted amounts (≈) assume the structure as drawn. The source made the active and inactive calls. The calls are words filed in the database; no cut-off is given here.

In this assay the test system is Mycobacterium tuberculosis. In words: Antimycobacterial activity against Mycobacterium tuberculosis H37Rv by microplate alamar blue assay. The settings on record: for MIC: Mycobacterium tuberculosis, H37Rv. Type of assay: functional.

As to `CCOC(=O)C(C)S(=O)(=O)c1nnc(-c2ccc([N+](=O)[O-])o2)s1` (stereo not drawn), the result was inactive, the Inhibition is listed as 78% and the MIC is > 6.25 µg/mL.

With `CCOC(=O)CCSc1nnc(-c2ccc([N+](=O)[O-])o2)s1`, the result was inactive, the Inhibition was found to be 14% and the MIC was > 6.25 µg/mL.

As to `CCOC(=O)C(C)Sc1nnc(-c2ccc([N+](=O)[O-])s2)s1` (stereo not drawn), the result was Active, the Inhibition stood at 92% and the lowest concentration to inhibit growth (MIC) was 6.25 µg/mL (≈ 18.1 µM).

As for `O=C(O)CCSc1nnc(-c2ccc([N+](=O)[O-])s2)s1`, the result was inactive, the Inhibition is on record as 0% and the MIC was > 6.25 µg/mL.

Consider `CCOC(=O)C(C)Sc1nnc(-c2ccc([N+](=O)[O-])o2)s1` (stereo not drawn), for which the outcome was Active, the Inhibition was found to be 98% and the MIC was 6.25 µg/mL (≈ 19 µM).

Turning to `CCCCOC(=O)CCSc1nnc(-c2ccc([N+](=O)[O-])s2)s1`, the result was Active, the Inhibition was determined as 98% and 6.25 µg/mL (≈ 16.7 µM) was the least that counted as inhibitory (MIC).

As to `CCOC(=O)C(C)[S+]([O-])c1nnc(-c2ccc([N+](=O)[O-])o2)s1` (stereo not drawn), the result was inactive, the Inhibition was determined as 6% and the MIC was > 6.25 µg/mL.

Regarding `CCOC(=O)C(C)[S+]([O-])c1nnc(-c2ncc([N+](=O)[O-])n2C)s1` (stereo not drawn), the outcome was inactive, the Inhibition was determined as 11% and the MIC is > 6.25 µg/mL.

`O=C(O)CCSc1nnc(-c2ccc([N+](=O)[O-])o2)s1`: the outcome was Active, the Inhibition was 95% and the lowest concentration to inhibit growth (MIC) was 6.25 µg/mL (≈ 20.7 µM).

With `COC(=O)CCSc1nnc(-c2ccc([N+](=O)[O-])o2)s1`, the outcome was inactive, the Inhibition was found to be 64% and the MIC was > 6.25 µg/mL.

For `CCOC(=O)C(C)S(=O)(=O)c1nnc(-c2ccc([N+](=O)[O-])s2)s1` (stereo not drawn), the result was inactive, the Inhibition is reported as 82% and the MIC was > 6.25 µg/mL.

As to `CCCCOC(=O)CCSc1nnc(-c2ccc([N+](=O)[O-])o2)s1`, the outcome was inactive, the Inhibition is 0% and the MIC is > 6.25 µg/mL.

Consider `CCOC(=O)C(C)[S+]([O-])c1nnc(-c2ccc([N+](=O)[O-])s2)s1` (stereo not drawn), for which the outcome was inactive, the Inhibition is 12% and the minimum inhibitory concentration (MIC) is > 6.25 µg/mL.

With `CCOC(=O)C(C)Sc1nnc(-c2ncc([N+](=O)[O-])n2C)s1` (stereo not drawn), the outcome was Active, the Inhibition was found to be 90% and the MIC stood at 6.25 µg/mL (≈ 18.2 µM).

Turning to `CCOC(=O)CCSc1nnc(-c2ccc([N+](=O)[O-])s2)s1`, the result was inactive, the Inhibition worked out at 26% and the MIC is > 6.25 µg/mL.

Turning to `CCOC(=O)C(C)S(=O)(=O)c1nnc(-c2ncc([N+](=O)[O-])n2C)s1` (stereo not drawn), the outcome was Active, the Inhibition turned out to be 100% and the MIC worked out at 3.12 µg/mL (≈ 8.31 µM).

`CCCOC(=O)CCSc1nnc(-c2ccc([N+](=O)[O-])o2)s1`: the result was inactive, the Inhibition is 0% and the MIC is > 6.25 µg/mL.

Turning to `COC(=O)CCSc1nnc(-c2ccc([N+](=O)[O-])s2)s1`, the result was inactive, the Inhibition is 76% and the MIC was > 6.25 µg/mL.

For the compound `CCCOC(=O)CCSc1nnc(-c2ccc([N+](=O)[O-])s2)s1`, the outcome was Active, the Inhibition amounted to 98% and the minimal inhibitory concentration (MIC) worked out at 1.56 µg/mL (≈ 4.34 µM).

For the compound `CO[C@H]1/C=C/O[C@@]2(C)Oc3c(C)c(O)c4c(O)c(c(/C=N/N5CCN(C)CC5)c(O)c4c3C2=O)NC(=O)/C(C)=C\C=C\[C@H](C)[C@H](O)[C@@H](C)[C@@H](O)[C@@H](C)[C@H](OC(C)=O)[C@@H]1C` [RIFAMPIN], 0.5 µg/mL (≈ 0.608 µM) was the least that counted as inhibitory (MIC).

What is called Inhibition is the percentage by which the read-out fell short of the control. What is called MIC is the lowest concentration that inhibits growth of the organism.
